Source: ChEMBL document CHEMBL4304782, “Antioxidant, Anti-inflammatory, and Neuroprotective Effects of Novel Vinyl Sulfonate Compounds as Nrf2 Activator” (ACS Med Chem Lett, 2019)
pEC50: −log10 of the molar value.

Target: T1, Nuclear factor erythroid 2-related factor 2 (Homo sapiens, UniProt Q16236)
T1 sequence (Q16236 whole entry): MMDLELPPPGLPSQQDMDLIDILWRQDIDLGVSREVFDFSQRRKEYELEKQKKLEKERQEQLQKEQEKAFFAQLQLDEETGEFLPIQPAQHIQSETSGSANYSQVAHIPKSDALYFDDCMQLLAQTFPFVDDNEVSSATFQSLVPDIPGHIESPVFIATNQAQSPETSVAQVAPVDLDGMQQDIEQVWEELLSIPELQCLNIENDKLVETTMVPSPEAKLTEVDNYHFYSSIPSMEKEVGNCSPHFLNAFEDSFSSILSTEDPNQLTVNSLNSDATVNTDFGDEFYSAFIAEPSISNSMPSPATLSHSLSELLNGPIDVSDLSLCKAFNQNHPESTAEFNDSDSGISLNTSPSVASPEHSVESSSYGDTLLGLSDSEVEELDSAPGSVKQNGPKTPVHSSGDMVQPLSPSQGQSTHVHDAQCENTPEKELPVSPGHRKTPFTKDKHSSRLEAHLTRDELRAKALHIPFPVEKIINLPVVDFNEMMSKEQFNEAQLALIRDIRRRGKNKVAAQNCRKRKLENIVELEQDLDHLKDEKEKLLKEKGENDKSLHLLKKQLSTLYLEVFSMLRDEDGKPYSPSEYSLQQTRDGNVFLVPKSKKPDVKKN
Experiment: Activation of ED-tagged Nrf2 in human U2OS cells co-expressing Keap1 assessed as induction of NRF2 translocation to nucleus after 6 hrs by beta-galactosidase based chemiluminescent assay
Format: cell-based

A pEC50 of 5.75 was found for `COc1cccc(OS(=O)(=O)/C=C/c2ccc(Cl)cc2)c1` in this work.

A pEC50 of less than 5.00 was found for `COc1ccc(NS(=O)(=O)/C=C/c2ccccc2Cl)cc1` in this work.

A pEC50 of 5.94 was found for `COc1ccc(OS(=O)(=O)/C=C/c2ccc(Cl)cc2)cc1` in this work.

A pEC50 of 5.98 was found for `O=S(=O)(/C=C/c1ccccc1)Oc1ccccc1` in this work.
